The values that follow come from US8062859B2, “Method for screening anticancer substances, set or kit for implementing said method” (Centre National de la Recherche Scientifique (CNRS), priority 2005, dated 2011).

What all share (type): cell-based
In experiment [1] the test system is SKCo-1 metastatic cell line. Kind of experiment: Localisation of E-cadherin at intercellular junctions (immunofluorescent labelling). The conditions noted are these: SKCo-1, Y-27632 10 μM for 48 hours, FIG. 1. The procedure: (§1) 1. Protocol for Immunofluorescent Labelling of e-Cadherin 1—The cells are plated in 6-well plates, each well containing 3 glass coverslips 10 mm in diameter. 2—Place the cells in 0% Serum for 18 to 24 hours then treat them or not with Y27 10 μM+PDGF 5 ng/ml for 36 to 48 h. 3—Fix the cells for 10 minutes with formalin (3.7% formaldehyde in PBS). 4—Saturation, 10 minutes PBS-BSA 5—Incubation of the primary antibody, diluted to 1:500 in PBS-BSA, 2 hours at 37° C. (Mouse anti E-cadherin, ZYMED, ref: 13-1700) 6—2 rapid washes in PBS-0.1% Tween 7—Incubation of the secondary antibody (Alexa Fluor® 488 F(ab′)2 fragment of goat anti mouse IgG, Molecular Probes ref: A-11017), diluted to 1:2000 in PBS-BSA, 30 minutes at 37° C. 8—2 rapid washes in PBS-0.1% Tween 9—Mounting in Mowiol medium between the slide and the coverslip.

Experiment [2] relates to CoLo205 metastatic cell line. The experiment is described as above. As to conditions: CoLo205, Y-27632 10 μM for 48 hours, FIG. 1. The procedure:
as §1

In experiment [3] the test system is SW620 metastatic cell line. Kind of experiment: Formation of E-cadherin type intercellular junctions (immunofluorescent labelling of E-cadherin). The procedure: as §1
For experiment [4], the system named is SW620 metastatic cell line. The experiment in a line: Spreading ability of the cells (flat versus round phenotype). The procedure: FIG. 2 illustrates the effect of the treatment of metastatic cells of the SW620 cell line by the inhibitor Y-27632 on the spreading ability of the cells (FIG. 2A) and on the formation of E-cadherin type adhesion junctions (FIG. 2B). In FIGS. 2 A and 2 B: on the left: control cells without inhibitor; on the right: cells incubated with Y-27632. On the x-axis: the percentage of flat cells (FIG. 2A) or the percentage of cells forming E-cadherin type intercellular junctions (FIG. 2B). 2—Place the cells in 0% Serum for 18 to 24 hours then treat them or not with Y27 10 μM+PDGF 5 ng/ml for 36 to 48 h.

The test system of experiment [5] is SW620 metastatic cell line. The experiment in a line: Invasion test (Matrigel, FluoroBlock inserts). The method, then:
2. Invasion Test 1—On D-2, thaw the Matrigel at 4° C. all night 2—On D-1 measure the Matrigel into insert chambers: Put all the necessary material on ice (Matrigel, culture medium, tips, eppendorfs, etc. . . . ). Put the FluoroBlock inserts (FALCON, ref: 351152) in the 24-well plates (FALCON, ref: 353504). Dilute the Matrigel to 2 mg/ml in cold serumless medium (if the cells are to be subjected to a treatment X, include the product in the Matrigel, e.g.: Y 27632) Aliquot 100 μl of 2 mg/ml Matrigel per insert avoiding creating bubbles. Leave O/N at 37° C. in a humid atmosphere (in an incubator) 3—On D day, plate the cells on the Matrigel: First put 700 μl of 10% serum medium in a 24-well plate and transfer the inserts to this plate. Trypsinate the cells (previously treated or not . . . ) and take them up in 2% serum medium. Plate 50 000 cells per insert in 200 μl of 2% serum medium on the Matrigel (optionally put Y27632 into the plated cells). 4—The migration time varies depending on the cell type but generally allowing them to migrate for 8 hours fixing a point every 2 hours seems suitable. To fix them, transfer the inserts to a 24-well plate containing 1 ml of formalin (3.7% formaldehyde in PBS), suck up the culture medium inside the chambers and also add formalin (very important, prevents the cells from continuing to migrate in the Matrigel). […] Read the OD at 490 nm.

Consider `C[C@@H](N)[C@H]1CC[C@H](C(=O)Nc2ccncc2)CC1` [Y-27632], for which the “location of E-cadherin at the junctions (in words)” value is recorded as “causes correct relocation of E-cadherin at the junctions” in experiment [1]; “causes correct relocation of E-cadherin at the junctions” in experiment [2]; “causes correct relocation of E-cadherin at the junctions” in experiment [3] (SW620, Y-27632 10 μM for 48 hours, FIG. 1). The “percentage of cells capable of forming E-cadherin type junctions” value in experiment [3] (SW620 cells after treatment with Y-27632, FIG. 2B (control 22%)) came out at 52%. In experiment [3] (SW620 cells, FIG. 1B and FIG. 2B), the “formation of E-cadherin dependent junctions (in words)” value was “enhances”. Also, the “percentage of flat cells” value in experiment [4] (SW620 cells after treatment with Y-27632, FIG. 2A (control 30%)) came out at 90%. In experiment [4] (SW620 cells after treatment with Y-27632, FIG. 2A (control 70%)), the “percentage of cells retaining a round phenotype” value is on record as 10%. For the same molecule, the “spreading ability of the cells (in words)” value in experiment [4] (SW620 cells, FIG. 2A) is reported as “enhances the spreading ability”. Besides, the “level of invasion, compared with CoN normal colon cells (in words)” value in experiment [5] (SW620 cells after treatment with Y-27632, FIG. 3B) is recorded as “very low level of invasion, comparable to that of CoN normal colon cells”. The “invasive capacity (in words)” value in experiment [5] (SW620 cells treated with Y-27632, FIG. 3B) was “drastically reduce their invasive capacity”.
